Patent US20050096360A1, “Inhibitors of semicarbazide-sensitive amine oxidase (SSAO) and VAP-1 mediated adhesion useful for treatment of diseases” (priority 2003, published 2005)
Where a name gives a salt, the structure may show the parent alone. Read-outs that look alike come from different tables or passages of the source.

Assays:
[1] = tested on: adhesion of human PBMCs to rat HEC transfected with full-length human SSAO/VAP-1; assay: In vitro adhesion of PBMCs to SSAO/VAP-1-transfected high endothelial cells; format: cell-based; conditions: inhibitors at IC100 concentrations, antibody 10 μg/ml; 3 hr at 37° C.
Experimental: The studies in this Example were carried out in order to determine whether SSAO/VAP-1 transfected into endothelial cells retained the adhesion function and whether it played any role in the adhesion of freshly isolated human PBMCs to these cells. Moreover, the studies were also designed to determine whether blocking of SSAO/VAP-1 would have an impact on the level of adhesion between these two cell types. Adhesion assays were performed using cells labeled with the fluorescent dye Calcein-AM (Molecular Probes, OR, USA) as per the manufacturer's instructions. Briefly, rat lymph node high endothelial cells (HEC; isolation and culture was described in Ager, A. (1987) J. Cell Sci. 87: 133) were plated overnight in 96-well plates (2,000 cells/well). PBMCs (peripheral blood mononuclear cells) (1×10^7) were labeled with 1 ml of 10 μM Calcein-AM for 1 hr at 37° C., washed three times with RPMI, and added to the 96 well plates containing monolayers of HEC cells mock-transfected or transfected with full-length human SSAO/VAP-1 (60,000 PBMCs were plated per well containing 2,000 HEC cells). Adhesion was carried out for 3 hr at 37° C. Non-adherent cells were removed by washing three times with RPMI and fluorescence was measured in a fluorescence plate reader at an excitation wavelength of 485 nm and emission wavelength of 530 nm. Several controls were included, such as HEC cells and PBMCs (labeled and unlabeled) alone.
(§1) These studies were repeated using the adhesion assay as described above to evaluate the inhibitors of the invention. Adhesion blockers used included an anti-human VAP-1 monoclonal antibody (Serotec, Oxford, UK), neuramidase (a sialidase, because SSAO/VAP-1 is a sialoglycoprotein; Sigma), and several function-blocking antibodies to rat adhesion molecules (CD31-PECAM, CD54-ICAM-1, […]-P Selectin). […] Antibodies (10 μg/ml) and neuramidase (5 mU) were incubated with the HECs for 30 min at 37° C.; excess antibody was washed away prior to the addition of the labeled PBMCs. Small-molecule inhibitors were pre-incubated the same way at IC100 concentrations, but the amounts present in the supernatant were not washed away to preserve the IC100 concentration during the adhesion step.

SSAO = assay: IC100 concentrations of SSAO inhibitors used in the adhesion assay; format: biochemical; conditions: FIG. 7 legend
From the text: FIG. 7 depicts the effect of blockage of SSAO/VAP-1 on binding between peripheral blood mononuclear cells (PBMCs) and high endothelial cells (HEC). FIG. 7A is a control experiment showing the effect of various compounds used for treatment on the adhesion of PBMCs to mock-transfected high endothelial cells; a non-treated control is included for comparison (MNT). FIG. 7B is a control experiment showing the effect of various compounds used for treatment on the adhesion of PBMCs to high endothelial cells transfected with VAP-1; a non-treated control is included for comparison (VNT).
as §1

recombinant human MAO-B = biological target: T1, recombinant human MAO-B (Homo sapiens, UniProt P27338); assay: Inhibition of MAO-B activity, colorimetric; format: biochemical; conditions: for Specificity for SSAO vs. MAO-B: ratio IC50 MAO-B to IC50 SSAO
T1 construct: purchased BD Biosciences (MA, USA)
T1 sequence (P27338 1-520): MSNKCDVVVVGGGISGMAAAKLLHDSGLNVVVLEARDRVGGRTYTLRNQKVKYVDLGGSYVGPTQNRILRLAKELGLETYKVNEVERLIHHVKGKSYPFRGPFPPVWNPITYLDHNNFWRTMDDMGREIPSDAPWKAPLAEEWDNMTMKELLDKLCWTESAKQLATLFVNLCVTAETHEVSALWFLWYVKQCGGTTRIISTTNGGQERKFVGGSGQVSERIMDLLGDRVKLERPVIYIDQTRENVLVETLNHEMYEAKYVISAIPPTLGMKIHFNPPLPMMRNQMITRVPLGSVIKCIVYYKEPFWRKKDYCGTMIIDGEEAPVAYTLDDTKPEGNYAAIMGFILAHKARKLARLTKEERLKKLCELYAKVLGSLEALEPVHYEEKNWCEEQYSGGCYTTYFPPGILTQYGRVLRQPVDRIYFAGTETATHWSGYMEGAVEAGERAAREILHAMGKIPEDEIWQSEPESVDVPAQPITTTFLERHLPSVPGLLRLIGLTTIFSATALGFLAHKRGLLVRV
Experimental: The specificity of the different SSAO inhibitors was tested by determining their ability to inhibit MAO-A and MAO-B activities in vitro. Recombinant human MAO-A and human MAO-B enzymes were obtained from BD Biosciences (MA, USA). […] A pre-determined amount of inhibitor diluted in 0.2 M potassium phosphate buffer, pH 7.6, was added to each well, if required. […] Controls lacked inhibitor. The following agents were then added to a final reaction volume of 200 μl in 0.2 M potassium phosphate buffer, pH 7.6: 0.04 mg/ml of MAO-A or 0.07 mg/ml MAO-B enzyme, 15 μl of 10 mM tyramine substrate (for MAO-A), or 15 μl 100 mM benzylamine substrate (for MAO-B), and 50 μl of freshly made chromogenic solution (as above). The plates were incubated for 60 min at 37° C. The increase in absorbance, reflecting MAO activity, was measured at 490 nm using microplate spectrophotometer (Power Wave 40, Bio-Tek Inst.). Inhibition was presented as percent inhibition compared to control after correcting for background absorbance and IC50 values calculated using GraphPad Prism software.

C57B1/6 female mice = assay: Acute toxicity studies in mice; format: in vivo; conditions: for acute toxicity effects observed: 100 mg/kg i.v.; for dose causing convulsions and labored breathing: i.p. (see Table 2)
Experimental: (§2) Intraperitoneal (i.p.) and intravenous (i.v.) LD50 values for the compounds of Examples 8 and 10, as well as mofegiline, the allylamine compound described in Example 18, were determined in mice. Six-week old C57B1/6 female mice were divided in groups of five and administered a single i.p or i.v. injection of compound dissolved in PBS (10-100 mg/kg in 100 ul i.v.; 30-500 mg/kg in 200 ul i.p.). Control groups were administered the same volume of PBS i.p. or i.v. Appearance and overt behavior were noted daily, and body weight was measured before compound administration (Day 1) and on Days, 3, 5 and 7. After seven days, animals were euthanized and their liver, spleen and kidneys weighted.
(§3) Acute toxicity effects for mofegiline included tremors (40 mg/kg i.v.; 100 mg/kg i.p.) and clonic convulsions and labored breathing (100 mg/kg i.v.; 200 mg/kg i.p.). […] All deaths occurred within 24 hours after drug administration. […] Thus, there is no indication of the cause of death for any of the compounds tested.

[2] = Acute toxicity studies in mice; format: in vivo; conditions: female, C57B1/6, mouse, in vivo, Day 7 values
Experimental: as §2, §3

[3] = ip, single i.p. injection, read-out: LD50 intraperitoneal
[4] = iv, single i.v. injection, read-out: LD50 intravenous

| SMILES | number of PBMCs adherent to SSAO/VAP-1 transfected HECs [1] | IC100 (SSAO) (SSAO) | IC50 (recombinant human MAO-B) | Specificity for SSAO vs. MAO-B (recombinant human MAO-B) | acute toxicity effects observed (C57B1/6 female mice) | dose causing convulsions and labored breathing (C57B1/6 female mice) | LD50 at 7 days [2, 3] | LD50 at 7 days [2, 4] |
| --- | --- | --- | --- | --- | --- | --- | --- | --- |
| C=C(CNN)c1ccccc1 [Example 2, Hydrochloride] | reduced | 150 nM | 100 µM | 2,900 | – | – | – | – |
| C=C(CNN)c1ccc(F)cc1.Cl [Example 8, N-[2-(4′-fluorophenyl)-allyl]-hydrazine Hydrochloride] | reduced | 250 nM | 81 µM | 2,500 | only tremor | greater than 350 mg/kg | 350 mg/kg | > 100 mg/kg |
| Cl.NNC/C(=C/F)c1ccccc1 [Example 10, (E)-1-fluoro-2-phenyl-3-hydrazinopropene Hydrochloride] | – | – | 0.65 µM | 10 | only tremor | greater than 250 mg/kg | 250 mg/kg | > 100 mg/kg |
